According to patent US9296725B2, “Heterocyclyl pyrimidine analogues as TYK2 inhibitors” (Cellzome Limited, priority 2012, dated 2016):

Columns and labels:
JAK2 = biological target: T1, JAK2 (Homo sapiens, UniProt O60674); assay: Kinobeads assay, JAK2 (competition binding in mixed Molt4/Ramos cell lysate, dot blot detection); conditions: read-out: JAK2 Band (Kinobeads assay potency, IC50)
T1 construct: endogenous in cells; host or cells: Molt4 (ATCC CRL-1582) and Ramos (ATCC CRL-1596), mixed lysate 1:2
Summary of the method: (§1)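 Competition binding: compound dilutions (1:3 series, 9 steps) plus immobilized aminopyrido-pyrimidine beads incubated 3 h in the cold with mixed Molt4/Ramos lysate (1:2) at 10 mg/mL protein. Bead-bound JAK2/TYK2 eluted and quantified by antibody dot blot with infrared detection; IC50 from dose-response curves.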

TYK2 = biological target: T2, TYK2 (Homo sapiens, UniProt P29597); assay: Kinobeads assay, TYK2 (competition binding in mixed Molt4/Ramos cell lysate, dot blot detection); conditions: Kinobeads assay, Molt4/Ramos lysate; read-out: TYK2 Band (Kinobeads assay potency, IC50)
T2 construct: endogenous in cells; host or cells: Molt4 (ATCC CRL-1582) and Ramos (ATCC CRL-1596), mixed lysate 1:2
Summary of the method: as §1

T2 sequence (P29597 whole entry): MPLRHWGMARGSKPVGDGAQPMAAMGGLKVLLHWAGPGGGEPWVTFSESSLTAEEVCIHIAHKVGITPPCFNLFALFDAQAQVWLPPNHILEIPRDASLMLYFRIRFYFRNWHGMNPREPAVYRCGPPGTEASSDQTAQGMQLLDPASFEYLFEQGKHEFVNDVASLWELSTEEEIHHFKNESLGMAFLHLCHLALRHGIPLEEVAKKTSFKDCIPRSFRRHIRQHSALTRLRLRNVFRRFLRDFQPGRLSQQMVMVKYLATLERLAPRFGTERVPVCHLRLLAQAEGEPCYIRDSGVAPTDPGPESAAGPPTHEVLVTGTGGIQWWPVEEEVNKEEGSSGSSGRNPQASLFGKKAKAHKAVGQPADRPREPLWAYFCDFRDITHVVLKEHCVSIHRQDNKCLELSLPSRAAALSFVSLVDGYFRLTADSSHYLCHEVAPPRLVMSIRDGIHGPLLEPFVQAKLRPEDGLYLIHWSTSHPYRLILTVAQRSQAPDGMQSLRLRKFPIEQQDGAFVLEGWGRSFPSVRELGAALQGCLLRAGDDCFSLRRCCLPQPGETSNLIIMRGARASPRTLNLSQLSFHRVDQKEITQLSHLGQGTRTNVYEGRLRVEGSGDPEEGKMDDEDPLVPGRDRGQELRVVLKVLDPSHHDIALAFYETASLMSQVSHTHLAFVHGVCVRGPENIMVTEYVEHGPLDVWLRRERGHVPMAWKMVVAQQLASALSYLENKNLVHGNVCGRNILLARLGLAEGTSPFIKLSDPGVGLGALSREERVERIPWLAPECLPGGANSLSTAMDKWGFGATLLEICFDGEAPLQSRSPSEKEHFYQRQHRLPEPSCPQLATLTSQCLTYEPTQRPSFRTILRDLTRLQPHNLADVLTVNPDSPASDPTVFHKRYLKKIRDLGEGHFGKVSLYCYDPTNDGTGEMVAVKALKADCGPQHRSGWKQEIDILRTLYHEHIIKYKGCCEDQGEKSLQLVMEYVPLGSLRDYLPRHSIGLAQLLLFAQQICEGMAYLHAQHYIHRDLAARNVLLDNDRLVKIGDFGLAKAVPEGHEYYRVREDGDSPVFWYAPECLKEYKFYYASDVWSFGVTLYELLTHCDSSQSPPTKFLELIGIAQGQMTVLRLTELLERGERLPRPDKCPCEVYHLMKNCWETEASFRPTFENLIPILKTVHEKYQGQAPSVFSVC
T1 sequence (O60674 whole entry): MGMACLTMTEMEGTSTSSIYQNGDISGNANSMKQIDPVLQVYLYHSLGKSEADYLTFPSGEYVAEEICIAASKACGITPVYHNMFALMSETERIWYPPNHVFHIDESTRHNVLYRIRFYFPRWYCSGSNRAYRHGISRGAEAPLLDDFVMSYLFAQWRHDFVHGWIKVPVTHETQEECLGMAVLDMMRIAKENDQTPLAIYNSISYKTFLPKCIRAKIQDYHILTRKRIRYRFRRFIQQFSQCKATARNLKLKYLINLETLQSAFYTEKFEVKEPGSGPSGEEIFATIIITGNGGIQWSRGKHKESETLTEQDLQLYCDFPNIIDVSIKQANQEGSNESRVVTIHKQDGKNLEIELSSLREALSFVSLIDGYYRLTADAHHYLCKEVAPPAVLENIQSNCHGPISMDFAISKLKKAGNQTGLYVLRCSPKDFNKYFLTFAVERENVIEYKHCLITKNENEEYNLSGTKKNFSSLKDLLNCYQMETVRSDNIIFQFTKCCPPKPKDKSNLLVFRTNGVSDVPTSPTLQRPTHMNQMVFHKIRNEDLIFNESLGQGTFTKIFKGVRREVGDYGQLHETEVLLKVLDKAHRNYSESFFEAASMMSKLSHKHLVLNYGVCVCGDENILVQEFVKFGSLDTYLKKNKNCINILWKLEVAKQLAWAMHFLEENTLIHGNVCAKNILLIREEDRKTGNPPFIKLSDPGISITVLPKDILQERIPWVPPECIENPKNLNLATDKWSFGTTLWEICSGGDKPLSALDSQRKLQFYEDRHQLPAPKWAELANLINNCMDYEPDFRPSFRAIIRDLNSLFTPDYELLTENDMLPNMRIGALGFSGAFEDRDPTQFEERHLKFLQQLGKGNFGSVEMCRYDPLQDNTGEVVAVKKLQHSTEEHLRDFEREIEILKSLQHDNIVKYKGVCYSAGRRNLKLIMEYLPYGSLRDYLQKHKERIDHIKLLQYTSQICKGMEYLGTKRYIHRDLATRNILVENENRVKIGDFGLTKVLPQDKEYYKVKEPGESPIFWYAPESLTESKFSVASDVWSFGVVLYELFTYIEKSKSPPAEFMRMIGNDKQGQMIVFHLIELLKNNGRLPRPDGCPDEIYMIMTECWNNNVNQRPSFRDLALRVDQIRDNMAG

For `Cn1cc(Nc2ncc(F)c(NCc3c(F)cc(F)cc3F)n2)cn1` [Example I-374], the IC50 (JAK2) was 1 to 10 µM and the IC50 (TYK2) was 0.01 to 0.1 µM.

With `CS(=O)(=O)c1ccccc1CNc1nc(Nc2cnn(CC(N)=O)c2)ncc1F` [Example I-436] the IC50 (JAK2) was 1 to 10 µM and the IC50 (TYK2) was 0.1 to 1 µM.

Compound `Cn1cc(Nc2ncc(Cl)c(NCc3c(F)cccc3F)n2)cn1` [Example I-175] has an IC50 (JAK2) of 1 to 10 µM and an IC50 (TYK2) of 0.01 to 0.1 µM.

With `Fc1cccc(F)c1CNc1nc(Nc2cnn(Cc3ncco3)c2)ncc1Cl` [Example I-481] the IC50 (JAK2) was 1 to 10 µM and the IC50 (TYK2) was 0.1 to 1 µM.

`Cn1cc(Nc2ncc(Cl)c(NCc3cccc(CS(C)(=O)=O)c3)n2)cn1` [Example I-442] was tested, and the IC50 (JAK2) was 1 to 10 µM and the IC50 (TYK2) was 1 to 10 µM.

With `C[C@H](C(N)=O)n1cc(Nc2ncc(Cl)c(NCc3ccccc3)n2)cn1` [Example I-290] the IC50 (JAK2) was 1 to 10 µM and the IC50 (TYK2) was 0.1 to 1 µM.

For `CC(C#N)NC(=O)Cn1cc(Nc2nccc(NCc3c(F)cc(F)cc3F)n2)cn1` (stereo not shown) [Example I-5, N-(1-cyanoethyl)-2-(4-((4-((2,4,6-trifluorobenzyl)amino)pyrimidin-2-yl)amino)-1H-pyrazol-1-yl)acetamide], the IC50 (JAK2) was greater than 10 µM and the IC50 (TYK2) was 0.01 to 0.1 µM.

With `CS(=O)(=O)c1ccc(F)cc1CNc1nc(Nc2cnn(CCO)c2)ncc1F` [Example I-488] the IC50 (JAK2) was 0.1 to 1 µM and the IC50 (TYK2) was 0.01 to 0.1 µM.

`CC(C)NC(=O)Cn1cc(Nc2nccc(NCc3c(F)ccc(C#N)c3F)n2)cn1` [Example I-134] gave an IC50 (JAK2) of 1 to 10 µM and an IC50 (TYK2) of no more than 0.01 µM.

With `CN(C)C(=O)Cn1cc(Nc2ncc(Cl)c(NCc3ccccc3)n2)cn1` [Example I-217] the IC50 (JAK2) was 1 to 10 µM and the IC50 (TYK2) was 0.1 to 1 µM.

`[2H]C([2H])(O)C([2H])([2H])n1cc(Nc2ncc(Cl)c(NCc3cccc(F)c3)n2)cn1` [Example I-232] was tested, and the IC50 (JAK2) was 1 to 10 µM and the IC50 (TYK2) was 0.1 to 1 µM.
